Reference: ChEMBL document CHEMBL3576797, “Pyridopyrimidinone Derivatives as Potent and Selective c-Jun N-Terminal Kinase (JNK) Inhibitors” (ACS Med Chem Lett, 2015)

Experiments:
[1] = Half life in human liver microsomes; type: ADME
[2] = Half life in mouse liver microsomes; type: ADME
[3] = Oral bioavailability in mouse at 3 mg/kg by LC-MS/MS analysis; type: ADME, organism-based; settings: in vivo
[4] = Cmax in mouse at 0.5 mg/kg, iv by LC-MS/MS analysis; type: ADME, organism-based; parameters: dose 0.5 mg/kg, route intravenous; settings: in vivo
[5] = AUC in mouse at 0.5 mg/kg, iv by LC-MS/MS analysis; type: ADME, organism-based; settings: in vivo
[6] = Half life in mouse at 0.5 mg/kg, iv by LC-MS/MS analysis; type: ADME, organism-based; settings: in vivo
[7] = Clearance in mouse at 0.5 mg/kg, iv by LC-MS/MS analysis; type: ADME, organism-based; settings: in vivo
[8] = Volume of distribution in mouse at 0.5 mg/kg, iv by LC-MS/MS analysis; type: ADME, organism-based; settings: in vivo

half-life [1] [min]	half-life [2] [min]	bioavailability [3] [%]	Cmax [4] [nM]	AUC [5] [µM·h]	half-life [6] [min]	clearance [7] [mL/min/kg]	Vd [8] [L/kg]	SMILES
> 120	23	10						CC(C)n1c(=O)ccc2cnc(N[C@H]3CC[C@H](O)CC3)nc21
44	19	66	1000	0.7	30	33	1.3	CC(C)C(=O)N[C@H]1CC[C@H](Nc2ncc3ccc(=O)n(C(C)C)c3n2)CC1
76	22	87	900	0.8	66	28	1.8	CC(C)NC(=O)N[C@H]1CC[C@H](Nc2ncc3ccc(=O)n(C(C)C)c3n2)CC1
65	14	43	1100	0.7	24	33	1	CCNC(=O)N1CCC(Nc2ncc3ccc(=O)n(C(C)C)c3n2)CC1
16	8							CCNC(=O)N[C@H]1CC[C@@H](Nc2ncc3ccc(=O)n(C(C)C)c3n2)CC1
46	17	100	600	0.3	18	72	1.9	CCNC(=O)N[C@H]1CC[C@H](Nc2ncc3ccc(=O)n(C(C)C)c3n2)CC1
7	5							CC(C)NC(=O)N[C@H]1CC[C@H](Nc2ncc3ccc(=O)n(C4CCCC4)c3n2)CC1
